# Experimental data as given in US8232269B2, “Amide compounds useful in therapy” (Pfizer Inc., priority 2008, dated 2012).
# pKi: −log10 of the molar value.
# Target: T1, Progesterone Receptor (PR) (Homo sapiens, UniProt P06401)
# T1 construct: endogenous in cells; host or cells: T47D human breast mammary carcinoma cells
# T1 sequence (P06401 1-933): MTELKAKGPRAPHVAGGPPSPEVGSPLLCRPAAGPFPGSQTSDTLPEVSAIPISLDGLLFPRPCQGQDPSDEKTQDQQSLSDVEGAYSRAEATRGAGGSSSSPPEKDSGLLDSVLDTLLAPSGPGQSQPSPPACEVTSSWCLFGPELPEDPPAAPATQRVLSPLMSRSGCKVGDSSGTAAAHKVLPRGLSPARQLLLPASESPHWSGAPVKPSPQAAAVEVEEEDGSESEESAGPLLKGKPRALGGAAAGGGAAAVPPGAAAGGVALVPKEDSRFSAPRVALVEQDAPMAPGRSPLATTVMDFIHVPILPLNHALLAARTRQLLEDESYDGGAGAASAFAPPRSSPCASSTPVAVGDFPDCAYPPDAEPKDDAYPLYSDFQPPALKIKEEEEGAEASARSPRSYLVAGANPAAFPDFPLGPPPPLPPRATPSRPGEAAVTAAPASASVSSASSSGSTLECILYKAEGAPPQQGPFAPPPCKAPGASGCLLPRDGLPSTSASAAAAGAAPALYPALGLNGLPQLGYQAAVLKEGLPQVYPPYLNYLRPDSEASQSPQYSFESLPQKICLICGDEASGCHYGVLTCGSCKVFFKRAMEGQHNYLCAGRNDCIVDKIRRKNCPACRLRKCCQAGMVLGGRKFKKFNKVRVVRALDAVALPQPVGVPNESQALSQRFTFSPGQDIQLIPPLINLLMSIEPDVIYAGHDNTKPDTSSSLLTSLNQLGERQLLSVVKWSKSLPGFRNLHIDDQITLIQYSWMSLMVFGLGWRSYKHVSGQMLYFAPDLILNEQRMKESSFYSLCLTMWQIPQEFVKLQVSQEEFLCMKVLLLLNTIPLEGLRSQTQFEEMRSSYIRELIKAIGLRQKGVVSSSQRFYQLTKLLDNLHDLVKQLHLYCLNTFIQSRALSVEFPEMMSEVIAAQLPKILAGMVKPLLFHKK
# Test: In vitro functional assay for progesterone receptor (PR) antagonists: inhibition of progesterone-induced alkaline phosphatase expression in T47D cells
# Type: cell-based
# Conditions: antagonist format, 5 nM progesterone, Ki calculated from IC50 with the Cheng-Prusoff equation
# Excerpt: 1.0 In vitro Functional Assay for Progesterone Receptor (PR) Antagonists, Agonists and Modulators
# The assay for PR antagonism takes advantage of the extensively reported modulation of alkaline phosphatase (AP) expression in human breast T47D mammary carcinoma cells {Beck et al., D. P. (1993). The progesterone antagonist RU486 acquires agonist activity upon stimulation of cAMP signalling pathways. Proc Natl Acad Sci USA 90, 4441-4445; Fensome et al. (2002). New progesterone receptor antagonists: 3,3-disubstituted-5-aryloxindoles. Bioorg Med Chem Lett 12, 3487-3490; Zhang et al., (2002a). 6-Aryl-1,4-dihydro-benzo d1,3oxazin-2-ones: a novel class of potent, selective, and orally active nonsteroidal progesterone receptor antagonists. Journal of Medicinal Chemistry 45, 4379-4382; Zhang et al., (2003). Novel 6-aryl-1,4-dihydrobenzo d oxazine-2-thiones as potent, selective, and orally active nonsteroidal progesterone receptor agonists. Bioorganic & Medicinal Chemistry Letters 13, 1313-1316; Zhang et al., (2002b). Potent nonsteroidal progesterone receptor agonists: synthesis and SAR study of 6-aryl benzoxazines. Bioorganic & Medicinal Chemistry Letters 12, 787-790; Zhang, Z. et al., (2000). In vitro characterization of trimegestone: a new potent and selective progestin. Steroids 65, 637-643}. […] In the absence of progesterone any agonist activity is also observed as an induction of AP activity. By running the assay in two formats (+/−progesterone (P4)), compounds behaving as PR antagonists, agonists, partial agonists or modulators with mixed agonist/antagonist activity can be identified.
# Briefly, T47D cells are grown by propagating in DMEM with phenol red+10% FCS+2 mM Glutamine at 37° C./5% CO2. At 70-80% confluence, the media is exchanged for phenol red free DMEM+5% CS-FCS (Assay media). Cells are incubated overnight in assay media then harvested and frozen in assay media containing 10% DMSO at 1.5e7 cells/mL in 2 mL aliquots using a Planer and immediately stored in liquid nitrogen. Vials are removed from liquid nitrogen storage and immediately thawed in a water bath at 37° C. The cell suspension is added dropwise to 20 mL of assay media, then the tube centrifuged at 1000 rpm for 4 minutes, the supernatant is discarded and the pellet re-suspended in 20 mL assay media. T47D cells are then plated at 8750 cells/well in 35 μL assay media in sufficient white solid 384 well TC plates for the assay. For the agonist format assay a further 10 μL of assay media is added to each well. These plates are then cultured for 3-6 hours at 37° C./5% CO2 before compound addition.
# Test substances are prepared by in 100% DMSO, half log concentrations from 4 mM in 384 well plates 5 μL/well (referred to here as ‘grandmother plates’). Progesterone is 100 μM made up in ethanol and PBS (i.e. add 1 mL ethanol to progesterone initially to help dissolving) and stored in 0.5-1 mL aliquots at −20° C.
# Using a multidrop (Thermolabsystems), 60 μL/well of buffer is added to a 384 well plate—this will be the ‘mother plate’. _Add 45 μL well buffer to grandmother plate using the multidrop (=400 μM 10% DMSO dilution). Mixed and spun to remove air bubbles. • 20 μL is taken from the grandmother plate (400 μM 10% DMSO) and added to the mother plate (=100 μM 2.5% DMSO). Mixed and spun to remove air bubbles Preparation of Max/Min:
# Antagonist Min: (Checker Pattern on Plate Map) 1 μM RU-486 (FAC 0.1 μM) • 50 μL of 0.2 mM RU-486 • 10 mL Diluent Addition of Test Substance to Cell Plates • The PlateMate Plus was used to add 5 μL MAX/MIN to cell plates • Then 5 μL test substances are added from the mother plate (after removing max/min PlateMate tips: columns 1 and 24)
# Addition of Agonist (5 nM Progesterone FAC) for Antagonist Format Only
# 25 nM progesterone in assay media is prepared from 100 μM stock (12.5 μL progesterone/50 mL media), from which 10 μL per well is transferred to the assay plate using the PlateMate Plus (already containing cells & compound). […]
row,Structure (SMILES),pKi
1,CC(C)n1nc(-c2ccc(C#N)cc2)c(Cl)c1C(=O)NC1CC1 [Example 132],7.75
2,"Cc1c(-c2ccc(C#N)cc2)nn(C2CC2)c1C(=O)NC[C@@H](C)O [Example 87, 3-(4-Cyanophenyl)-1-cyclopropyl-N-[(2R)-2-hydroxypropyl]-4-methyl-1H-pyrazole-5-carboxamide]",< 6.72
3,"CC(C)n1nc(-c2ccc(C#N)cc2)c(C2CC(F)(F)C2)c1C(=O)NC1CC1 [Example 98, 3-(4-Cyanophenyl)-N-cyclopropyl-4-(3,3-difluorocyclobutyl)-1-isopropyl-1H-pyrazole-5-carboxamide]",6.68
4,CC(C)n1nc(-c2ccc(C#N)cc2)c(C2CC2)c1C(=O)NC1CCS(=O)(=O)C1 (stereo not drawn) [Example 125],8.08
5,"CC(C)n1nc(-c2ccc(C#N)cc2)c(C2CC2)c1C(=O)NC1CN(S(C)(=O)=O)C1 [Example 18, 3-(4-Cyanophenyl)-4-cyclopropyl-1-isopropyl-N-[1-(methylsulfonyl)azetidin-3-yl]-1H-pyrazole-5-carboxamide]",7.42
6,"CC(C)n1nc(-c2ccc(C#N)cc2)c(C2CC2)c1C(=O)NCc1cnn(C)c1 [Example 30, 3-(4-Cyanophenyl)-4-cyclopropyl-1-isopropyl-N-[(1-methyl-1H-pyrazol-4-yl)methyl]-1H-pyrazole-5-carboxamide]",7.51
7,"Cc1c(-c2ccc(C#N)cc2)nn(C2CCOC2)c1C(=O)NC[C@H](C)O (single isomer, unassigned) [Example 78 Diast 1]",< 6.62
8,"CCC(=O)N1CCC(NC(=O)c2c(C3CC3)c(-c3ccc(C#N)cc3)nn2C(C)C)C1 (stereo in doubt) [Example 12, 3-(4-Cyanophenyl)-4-cyclopropyl-1-isopropyl-N-[(3S)-1-propionylpyrrolidin-3-yl]-1H-pyrazole-5-carboxamide]",7.76
9,"CC(C)n1nc(-c2ccc(C#N)cc2)c(C2CC2)c1C(=O)N(C)CC1CC1 [Example 51, 3-(4-Cyanophenyl)-4-cyclopropyl-N-(cyclopropylmethyl)-1-isopropyl-N-methyl-1H-pyrazole-5-carboxamide]",8.33
10,"COCCNC(=O)c1c(C2CC2)c(-c2ccc(C#N)cc2)nn1C(C)C [Example 59, 3-(4-Cyanophenyl)-4-cyclopropyl-1-isopropyl-N-(2-methoxyethyl)-1H-pyrazole-5-carboxamide]",8.11
11,"CC(C)n1nc(-c2ccc(C#N)cc2)c(C2CC2)c1C(=O)NC(C)(C)CO [Example 56, 3-(4-Cyanophenyl)-4-cyclopropyl-N-(2-hydroxy-1,1-dimethylethyl)-1-isopropyl-1H-pyrazole-5-carboxamide]",7.08
12,"CCNC(=O)c1c(C#N)c(-c2ccc(C#N)cc2)nn1C(C)C [Example 89, 4-Cyano-3-(4-cyanophenyl)-N-ethyl-1-isopropyl-1H-pyrazole-5-carboxamide]",8.11
13,"Cc1c(-c2ccc(C#N)cc2)nn(C2CCC2)c1C(=O)NCC(C)(C)O [Example 74, 3-(4-Cyanophenyl)-1-cyclobutyl-N-(2-hydroxy-2-methylpropyl)-4-methyl-1H-pyrazole-5-carboxamide]",7.73
14,"CC(C)NC(=O)c1c(C#N)c(-c2ccc(C#N)cc2)nn1C(C)C [Example 91, 4-Cyano-3-(4-cyanophenyl)-N,1-diisopropyl-1H-pyrazole-5-carboxamide]",8.19
15,"CCc1c(-c2ccc(C#N)cc2)nn(C(C)CC)c1C(=O)NCC(=O)NC (single isomer, unassigned) [Example 109 Ent 2, 1-sec-Butyl-3-(4-cyanophenyl)-4-ethyl-N-[2-(methylamino)-2-oxoethyl]-1H-pyrazole-5-carboxamide]",6.72

# The remaining lines, values ahead:
row,pKi,Structure (SMILES)
1,7.95,"CC[C@@H](C)NC(=O)c1c(C2CC2)c(-c2ccc(C#N)cc2)nn1C(C)C [Example 35, 3-(4-Cyanophenyl)-4-cyclopropyl-1-isopropyl-N-[(1R)-1-methylpropyl]-1H-pyrazole-5-carboxamide]"
2,8.15,"CC[C@H](C)NC(=O)c1c(C2CC2)c(-c2ccc(C#N)cc2)nn1C(C)C [Example 33, 3-(4-Cyanophenyl)-4-cyclopropyl-1-isopropyl-N-[(1S)-1-methylpropyl]-1H-pyrazole-5-carboxamide]"
3,6.86,"Cc1c(-c2ccc(C#N)cc2)nn(C2CC2)c1C(=O)NC(C)C [Example 85, 3-(4-Cyanophenyl)-1-cyclopropyl-N-isopropyl-4-methyl-1H-pyrazole-5-carboxamide]"
4,7.06,"CC(C)n1nc(-c2ccc(C#N)cc2)c(C2CC2)c1C(=O)NCCCN1CCCC1=O [Example 26, 3-(4-Cyanophenyl)-4-cyclopropyl-1-isopropyl-N-[3-(2-oxopyrrolidin-1-yl)propyl]-1H-pyrazole-5-carboxamide]"
5,7.90,"CCNC(=O)c1c(CC)c(-c2ccc(C#N)cc2)nn1C(C)CC (racemic) [Example 103, (+/−)-1-sec-Butyl-3-(4-cyanophenyl)-N,4-diethyl-1H-pyrazole-5-carboxamide]"
6,6.63,"CC(C)n1nc(-c2ccc(C#N)cc2)c(C2CC2)c1C(=O)NCC(C)(C)N [Example 29, N-(2-amino-2-methylpropyl)-3-(4-cyanophenyl)-4-cyclopropyl-1-isopropyl-1H-pyrazole-5-carboxamide]"
7,7.88,"Cc1c(-c2ccc(C#N)cc2)nn(C2CCC2)c1C(=O)NC[C@H](C)O [Example 72, 3-(4-Cyanophenyl)-1-cyclobutyl-N-[(2S)-2-hydroxypropyl]-4-methyl-1H-pyrazole-5-carboxamide]"
8,6.99,"Cc1c(-c2ccc(C#N)cc2)nn(C2CCOC2)c1C(=O)NC(C)C (single isomer, unassigned) [Example 77 Ent 2, 3-(4-Cyanophenyl)-N-isopropyl-4-methyl-1-(tetrahydrofuran-3-yl)-1H-pyrazole-5-carboxamide]"
9,< 6.12,"Cc1c(-c2ccc(C#N)cc2)nn(C2CCOC2)c1C(=O)NC[C@@H](C)O (single isomer, unassigned) [Example 79 Diast 1]"
